This note sets out measurements from doi:10.1101/2025.02.02.636098v1 (biorxiv, 2025).

The target of assay [1] is T1, mFFA4 (mouse FFA4) (Mus musculus, UniProt Q7TMA4).
T1 sequence (Q7TMA4 1-361): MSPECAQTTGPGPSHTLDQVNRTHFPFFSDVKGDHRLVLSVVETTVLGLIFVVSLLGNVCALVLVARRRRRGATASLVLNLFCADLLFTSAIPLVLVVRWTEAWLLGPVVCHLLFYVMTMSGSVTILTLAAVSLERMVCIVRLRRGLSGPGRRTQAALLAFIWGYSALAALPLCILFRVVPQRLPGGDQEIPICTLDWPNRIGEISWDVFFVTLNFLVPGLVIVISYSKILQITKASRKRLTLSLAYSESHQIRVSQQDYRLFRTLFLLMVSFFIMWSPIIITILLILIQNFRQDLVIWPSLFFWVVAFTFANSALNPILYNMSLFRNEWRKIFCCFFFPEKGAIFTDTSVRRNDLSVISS
Put plainly: bystander BRET arrestin-3 recruitment, HEK293T. Type of assay: cell-based.

Assay [2] has as its target T1, mFFA4 (mouse FFA4). Put plainly: Ca2+ mobilisation, Fura-2, Flp-In T-REx […]. The format is cell-based. A general note: Calcium flux is commonly read through the fluorescence of an indicator in the cells.

Each structure is given as a SMILES string.

As a reminder, the IC50 is the concentration at which inhibition is half-maximal. Read a high IC50 as a need for much substance. For orientation: EC50 means the concentration that produces a half-maximal response. Read a low EC50 as higher potency in that assay.

`Cc1ccc(S(=O)(=O)NC2c3ccccc3Oc3ccccc32)cc1` [AH7614, 4-Methyl-N-9H-xanthen-9-yl-benzenesulfonamide] gave an IC50 at mFFA4 (mouse FFA4) [1] of 0.2 µM.
With `CC/C=C\C/C=C\C/C=C\CCCCCCCC(=O)O` [aLA], a half-maximal response on mFFA4 (mouse FFA4) [2] (EC50) required 10 µM.
